Source: patent publication US12721838B2 (Henry Ford Health System, priority 2020, dated 2026)
“Also recorded” adds a separate entry of the source. Where two headings read alike, the source gives them in different places.

What was measured:
LNCaP-ENR cells [1] = assay: Soft-agar colony formation assay; format: cell-based, human; conditions: LNCaP-ENR (ERPC) cells, three weeks; DCV at 8 μM
Experimental: Effect of DCV on soft-agar colony formation was also analyzed. LNCaP-ENR cells (10,000 per well in 6-well plates) were plated in 0.3% soft-agar on top of a base layer of 0.6% agar. The cells were treated with DCV and incubated at 37° C. for three weeks in the CO2 incubator. Cells were given fresh media and drug every fourth day. At the end of the incubation period, colonies were stained with 0.025% crystal violet, and pictures of colonies were taken with a Nikon digital camera at ×200. Image processing was done using Q-Capture Pro-7 software. Exemplary methods of the foregoing technique can be found in Sarveswaran, Sivalokanathan et al. “Inhibition of 5-lipoxygenase downregulates stemness and kills prostate cancer stem cells by triggering apoptosis via activation of c-Jun N-terminal kinase.” Oncotarget vol. 10, 4 424-436. 11 Jan. 2019, the disclosure of which is incorporated herein by reference in its entirety.

[2] = biological target: T1, Trib2-Luciferase (Luc-Trib2) fusion (Homo sapiens, UniProt Q92519); assay: cell-based; conditions: HFF, read-out: Luciferase activity (%)
T1 sequence (Q92519 with tags, fused parts or gaps): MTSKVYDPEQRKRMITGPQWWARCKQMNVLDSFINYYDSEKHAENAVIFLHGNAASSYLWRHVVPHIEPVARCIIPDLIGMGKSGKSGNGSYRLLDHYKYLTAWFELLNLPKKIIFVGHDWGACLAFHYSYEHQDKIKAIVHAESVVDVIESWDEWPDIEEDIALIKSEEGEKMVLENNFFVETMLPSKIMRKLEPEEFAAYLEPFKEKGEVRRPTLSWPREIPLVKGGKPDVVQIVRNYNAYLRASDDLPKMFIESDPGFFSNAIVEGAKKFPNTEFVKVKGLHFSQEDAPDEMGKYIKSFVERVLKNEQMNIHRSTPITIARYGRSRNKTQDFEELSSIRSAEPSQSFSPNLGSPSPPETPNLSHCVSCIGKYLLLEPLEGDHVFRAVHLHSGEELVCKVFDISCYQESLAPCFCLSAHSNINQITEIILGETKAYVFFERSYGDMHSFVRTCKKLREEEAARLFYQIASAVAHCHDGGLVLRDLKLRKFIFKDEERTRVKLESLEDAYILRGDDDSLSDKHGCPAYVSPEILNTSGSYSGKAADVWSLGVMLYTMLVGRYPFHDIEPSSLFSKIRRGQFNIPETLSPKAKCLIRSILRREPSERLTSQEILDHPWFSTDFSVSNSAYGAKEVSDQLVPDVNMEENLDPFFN

LNCaP-ENR cells [3] = assay: MTS/PES cell viability assay, ERPC cells; format: cell-based, human; conditions: LNCaP-ENR cells, varying doses, 72 hours, MTS/PES; listed as ledipasvir
Experimental: Plates were incubated for 72 hours at 37° C. in a CO2 incubator. Cell viability was measured by MTS/PES cell titer assay (Promega Corp., Madison, WI).

[4] = system: LNCaP-ENR and MR49F ERPC cells; assay: In vitro invasion through extracellular matrix; format: cell-based, human; conditions: LNCaP-ENR and MR49F ERPC cells (data not shown)
LNCaP-ENR cells [5] = assay: Apoptosis by Annexin V binding, flow cytometry; format: cell-based, human; conditions: ERPC cells
Experimental: To test DCV effects on cancer cell apoptosis, LNCaP-ENR cells were treated with 8 μM DCV for 24 hours and analyzed by flow cytometry. Treatment with DCV indicated increased Annexin V binding, a read-out for apoptosis (FIG. 3C).

[6] = biological target: T1, Trib2-Luciferase (Luc-Trib2) fusion; conditions: 10 μM, 24 hours, HFF-Trib2-Luc cells
TRIB2 = biological target: T2, TRIB2 (Homo sapiens, UniProt Q92519); assay: Western blot of TRIB2 protein levels in cancer cells; format: cell-based; design: Whole cell lysate proteins were analyzed by Western blot; endogenous in cells; host or cells: LNCaP-ENR (enzalutamide-resistant LNCaP) cells; conditions: LNCaP-ENR cells, 10 μM, 24 hours, Western blot
T2 sequence (Q92519 1-343): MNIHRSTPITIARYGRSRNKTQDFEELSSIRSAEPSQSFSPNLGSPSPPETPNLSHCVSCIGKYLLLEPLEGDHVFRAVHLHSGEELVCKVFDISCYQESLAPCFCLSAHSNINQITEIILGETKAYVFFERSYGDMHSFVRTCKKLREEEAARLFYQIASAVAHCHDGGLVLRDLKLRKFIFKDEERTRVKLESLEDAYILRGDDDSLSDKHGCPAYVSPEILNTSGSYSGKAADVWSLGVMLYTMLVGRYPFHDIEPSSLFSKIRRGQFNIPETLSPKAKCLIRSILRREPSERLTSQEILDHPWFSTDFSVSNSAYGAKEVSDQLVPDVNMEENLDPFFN
Experimental: Enzalutamide-resistant prostate cancer (ERPC) cells (LNCaP-ENR cells) were plated and treated with 10 μM each of various compounds for 24 hours. Exemplary methods for developing and using LNCaP-ENR cells is disclosed in Monga, J., Subramani, D., Bharathan, A., and Ghosh, J. (2020) “Pharmacological and genetic targeting of 5-lipoxygenase interrupts c-Myc oncogenic signaling and kills enzalutamide-resistant prostate cancer cells via apoptosis.” Scientific Reports 10: 6649, the disclosure of which is incorporated herein by reference in its entirety. Whole cell lysate proteins were analyzed by Western blot. TRIB2 antibody was used to detect protein levels of TRIB2 and GAPDH was used as loading control. Monoclonal anti-Trib2 antibody was purchased from Santa Cruz Biotech, Santa Cruz, CA.
LNCaP-ENR cells were treated with varying doses (4 μM, 8 μM, or 12 μM) of DCV for 24 hours. Effects on TRIB2 protein levels and its downstream targets (e.g., pAkt, Bcl-xL, Survivin, and FOXO3) were analyzed by Western blot. GAPDH was used as loading control. Protein levels of TRIB2, pAKT (S473), Bcl-xL, and Survivin were reduced in cells treated with 12 μM of DCV compared to control-treated cells (FIG. 3A). Levels of FOXO3 protein were increased at 12 μM of DCV treatment compared to control treatment. This was expected, as FOXO3 level is known to be decreased by Trib2. These effects on cellular protein levels were DCV concentration-dependent, with the most pronounced effects observed at the highest concentration tested (12 μM).

Trib2-OE cells = assay: Enzalutamide sensitivity of Trib2-overexpressing prostate cancer cells; format: cell-based, human; conditions: clinically relevant doses
Description: Prostate cancer cells were transfected with full length human gene to overexpress Trib2 (FIG. 18). […] Trib2 siRNA was used in parallel experiments as a positive control.

Compound | soft-agar colony formation (LNCaP-ENR cells [1]) | activity at 10 µM [2] [%] | Cell viability (LNCaP-ENR cells [3]) | in vitro invasion through extracellular matrix [4] | signs of apoptotic features (LNCaP-ENR cells [5]) | inhibition of Trib2-luciferase activity (in words) [6] | inhibition of Trib2-luciferase activity (in words) ([6]; listed as ledipasvir) | TRIB2 protein levels (TRIB2) | response of Trib2-OE cells to enzalutamide (Trib2-OE cells)
COC(=O)N[C@H](C(=O)N1CC2(CC2)C[C@H]1c1nc(-c2ccc3c(c2)C(F)(F)c2cc(-c4ccc5[nH]c([C@@H]6[C@H]7CC[C@H](C7)N6C(=O)[C@@H](NC(=O)OC)C(C)C)nc5c4)ccc2-3)c[nH]1)C(C)C [Ledipasvir] | completely ineffective | 100 | not | completely ineffective | did not show any signs of apoptotic features | completely ineffective | no inhibition; also recorded: not effective | neither downregulates TRIB2 | –
CNC(=O)c1ccc(N2C(=S)N(c3ccc(C#N)c(C(F)(F)F)c3)C(=O)C2(C)C)cc1F [enzalutamide] | – | – | – | – | – | – | – | – | completely resistant
